For one assay, the system named is MDCKE11 cells. Nature of the assay: cAMP production in renal tubular epithelial cells (MDCK). The assay is classed as cell-based, canine. The conditions noted are these: P<0.001 when compared to all other groups. The procedure:
The culture medium was aspirated from RTEc monolayers, and the cells were washed three times with PBS. Madin-Darby canine kidney cell (MDCKc) monolayers were then overlaid with 5 mls PBS at room temperature on 100 mm culture dishes. cAMP phosphodiesterase inhibitor was added at a final concentration of 10 μM to all incubations to prevent the enzymatic degradation of cellular cAMP. Isoproterenol (ISO) at 10^−5M, bFGF (basic fibroblast growth factor) (20 ng/ml), or both were added to the treatment groups. Cells were incubated under an atmosphere of 95% air and 5% CO2 at 37° C. for 1, 3, 5, 10, 20, and 40 minute periods. Following the incubation period, 1.0 ml/plate aliquot samples were transferred to 12×75 mm polypropylene tubes, and immediately placed in a 0° C. ice bath. […] Total cellular protein was determined using the BCA (bicinchoninic acid) protein assay (Pierce, Rockford, Ill.) according to the manufacturers specification. The cAMP assays were done as prescribed by the manufacturer of the cAMP quantitation kit (Diagnostic Products Corporation, Los Angeles, Calif.); this procedure is patterned after a procedure described by Tovey et al. The procedure entails a competition of ^3H cAMP for cAMP binding protein, separation of free (unbound) cAMP by adsorption onto dextrancoated charcoal, followed by counting of bound ^3H by liquid scintillation (Izevbigie, Pediatr. Nephrol., 2000).
A general note: Changes in cAMP serve as a functional read-out for many G protein-coupled receptors.

The subject of assay [1] is differentiated C2C12 cells. Nature of the assay: cAMP production in differentiated C2C12 myoblasts. The assay is classed as cell-based, mouse. The settings on record: isoproterenol 10, 0.1 or 0.001 μM, 37° C., 10 min. As to the method:
Medium was aspirated from differentiated C2C12 cells, and monolayers were washed with PBS. Monolayers were then overlaid with PBS at 37° C. containing the following treatments: isoproterenol (ISO) at 10^−5, 10^−7, and 10^−9 M forskolin (positive control) at 5×10^−5 M, and negative control (no treatments). A cAMP phosphodiesterase inhibitor, imidazolidin, (10^−6 M) was added to all incubations to prevent enzymatic degradation of cAMP. Culture dishes were placed in a humidified incubator under an atmosphere of 95% air and 5% CO2 at 37° C. for 5-10 min. After the incubation, aliquots of incubation medium were quickly removed, chilled, and stored at −20° C. for cAMP determination (within 3 days). Cells were washed and frozen for later protein determination (Bradford, 1976). The cAMP assays were done as prescribed by the manufacturer of the cAMP quantitation kit (Diagnostic Products Corporation, Los Angeles, Calif.); this procedure is patterned after a procedure described by Tovey et al. The procedure entails a competition of ^3H cAMP for cAMP binding protein, separation of free (unbound) cAMP by adsorption onto dextran-coated charcoal, followed by counting of bound ^3H by liquid scintillation. […] Thus, cAMP production was determined as the sum of assayable cAMP in the PBS and within the cells.

The subject of a further assay is HFMc. Nature of the assay: cAMP accumulation in human fetal mesangial cells (extracellular cAMP, competitive 3H-cAMP binding kit). In kind it is cell-based. The settings on record: 10 min; for cAMP accumulation compared with control cells: confluent serum-starved HFMc, Ang II 1 μM, bFGF 20 ng/ml, p<0.05. The procedure: The culture medium was aspirated from HFMc monolayers, and the cells were washed three times with PBS. Cell monolayers were then overlaid with PBS at room temperature on 100 mm culture dishes. A cAMP phosphodiesterase inhibitor was added to a final concentration of 10 μM to all incubations to prevent the enzymatic degradation of cellular cAMP. Isoproterenol (ISO) at 10^−5M, with or without bFGF (basic fibroblast growth factor) (20 ng/ml), or three doses of ISO (10^−5, 10^−7, 10^−9M) with 10^−6M angiotensin II (Ang II) were added to the treatment groups. Cells were incubated under an atmosphere of 95% air and 5% CO2 at 37° C. for 10 minutes. Following the incubation period, 1.0 ml/plate aliquot samples were transferred to 12×75 mm polypropylene tubes, and immediately placed in a 0° C. ice bath. The cell monolayers and 1.0 ml aliquots were stored at −20° C. for protein determination and cAMP analysis respectively. Total cellular protein was determined using the BCA (bicinchoninic acid) protein assay (Pierce, Rockford, Ill.) according to the manufacturers specification. The extracellular cAMP per plate was quantified using Diagnostic Corporation (Los Angeles, Calif.) kits according to the manufacturer's specifications; this procedure is patterned after a procedure described by Tovey et al. The procedure entails a competition of ^3H cAMP for cAMP binding protein, separation of free (unbound) cAMP by adsorption onto dextrancoated charcoal, followed by counting of bound ^3H by liquid scintillation (Izevbigie, Pediatr. Res., 2000).

As for `CC(C)NCC(O)c1ccc(O)c(O)c1` (centres unmarked) [Isoproterenol, isoproterenol], the cAMP production entry is recorded as “induction of cAMP production” with MDCKE11 cells and “dose-dependent cAMP production” in assay [1].
Turning to basic fibroblast growth factor [bFGF], the “cAMP accumulation compared with control cells” value with HFMc is listed as “modest but significant increase”.
Take “angiotensin II (DRVYIHPF; Angiotensin-2; UniProt P01019 25-32, looked up) [Ang II]”: the “cAMP accumulation compared with control cells” value in the assay with HFMc was “not”. The “modulation of isoproterenol-induced cAMP accumulation” value in the assay on HFMc (serum-starved HFMc, Ang II (1 µM) with different concentrations of isoproterenol, significant at 0.1 and 10 μM isoproterenol (p<0.05)) was “decreased”.

The values are drawn from US6541196B2, “Method for cAMP production” (Jackson State University, priority 2000, dated 2003).
